# Experimental data taken from ChEMBL document CHEMBL3885861, “Open TG-GATES”.
# Organism: Rattus norvegicus
# Assay: Open TG-GATES - Regimen: Single
# Assay type: toxicity, organism-based, Sprague-Dawley
# Set-up: regimen Single, gender Male, age 6 weeks
# Conditions: in vivo, po, 150 mg/kg, route gavage, dose level Middle; for APTT / Bas / Eos / Fbg / Hb / Ht / Lym / MCH / MCHC / MCV / Mono / Neu / PT / Plat / RBC / Ret / WBC: tissue Blood; for KIDNEY_L / KIDNEY_R / KIDNEY_TOTAL: tissue Kidney; for LIVER: tissue Liver; for A/G / ALP / ALT / AST / BUN / CRE / Ca / Cl / DBIL / GLC / IP / K / LDH / Na / PL / RALB / TBIL / TC / TG / TP / gamma-GTP: tissue Plasma
smiles,measurement,setting,value
CN1C(=O)CCS(=O)(=O)C1c1ccc(Cl)cc1 (configuration not stated) [CHLORMEZANONE],TERMINAL_BW,3 h,230 g
same,APTT,3 h,15.9 s
same,Bas,3 h,0%
same,Eos,3 h,1%
same,Fbg,3 h,314.4 mg/dL
same,Hb,3 h,13.5 g/dL
same,Ht,3 h,39.4%
same,Lym,3 h,77%
same,MCH,3 h,21.7 pg
same,MCHC,3 h,34.1%
same,MCV,3 h,63.6 fL
same,Mono,3 h,2.8%
same,Neu,3 h,18.4%
same,PT,3 h,13.1 s
same,Plat,3 h,123.1 x10_4/uL
same,RBC,3 h,620.2 x10_4/ul
same,Ret,3 h,7.9%
same,WBC,3 h,84.3 x10_2/uL
same,KIDNEY_L,3 h,1 g
same,KIDNEY_R,3 h,1 g
same,KIDNEY_TOTAL,3 h,1.9 g
same,LIVER,3 h,10.6 g
same,A/G,3 h,0.9
same,ALP,3 h,1400.8 IU/L
same,ALT,3 h,49.6 IU/L
same,AST,3 h,75.6 IU/L
same,BUN,3 h,11.6 mg/dL
same,CRE,3 h,0.2 mg/dL
same,Ca,3 h,11.6 mg/dL
same,Cl,3 h,104.2 meq/L
same,DBIL,3 h,0.018 mg/dL
same,GLC,3 h,182.2 mg/dL
same,IP,3 h,9.5 mg/dL
same,K,3 h,4.3 meq/L
same,LDH,3 h,56.8 IU/L
same,Na,3 h,140.6 meq/L
same,PL,3 h,157.6 mg/dL
same,RALB,3 h,2.6 g/dL
same,TBIL,3 h,0.034 mg/dL
same,TC,3 h,87 mg/dL
same,TG,3 h,95.6 mg/dL
same,TP,3 h,5.6 g/dL
same,gamma-GTP,3 h,1 IU/L
same,TERMINAL_BW,6 h,229.6 g
same,APTT,6 h,17.8 s
same,Bas,6 h,0%
same,Eos,6 h,0.6%
same,Fbg,6 h,295 mg/dL
same,Hb,6 h,13.8 g/dL
same,Ht,6 h,41.1%
same,Lym,6 h,77.8%
same,MCH,6 h,22.1 pg
same,MCHC,6 h,33.6%
same,MCV,6 h,65.8 fL
same,Mono,6 h,3.8%
same,Neu,6 h,16.8%
same,PT,6 h,13.6 s
same,Plat,6 h,119.1 x10_4/uL
same,RBC,6 h,624.4 x10_4/ul
same,Ret,6 h,8.5%
same,WBC,6 h,70.9 x10_2/uL
same,KIDNEY_L,6 h,1 g
same,KIDNEY_R,6 h,1 g
same,KIDNEY_TOTAL,6 h,2 g
same,LIVER,6 h,10.1 g
same,A/G,6 h,0.9
same,ALP,6 h,1441.2 IU/L
same,ALT,6 h,41.6 IU/L
same,AST,6 h,71.8 IU/L
same,BUN,6 h,9.2 mg/dL
same,CRE,6 h,0.2 mg/dL
same,Ca,6 h,11.7 mg/dL
same,Cl,6 h,105.6 meq/L
same,DBIL,6 h,0.014 mg/dL
same,GLC,6 h,184.2 mg/dL
same,IP,6 h,11.2 mg/dL
same,K,6 h,4.5 meq/L
same,LDH,6 h,61.4 IU/L
same,Na,6 h,142.8 meq/L
same,PL,6 h,152 mg/dL
same,RALB,6 h,2.7 g/dL
same,TBIL,6 h,0.038 mg/dL
same,TC,6 h,76 mg/dL
same,TG,6 h,57.2 mg/dL
same,TP,6 h,5.7 g/dL
same,gamma-GTP,6 h,1.6 IU/L
same,TERMINAL_BW,9 h,228.1 g
same,APTT,9 h,14 s
same,Bas,9 h,0%
same,Eos,9 h,0.6%
same,Fbg,9 h,329.4 mg/dL
same,Hb,9 h,13.1 g/dL
same,Ht,9 h,38.8%
same,Lym,9 h,74.2%
same,MCH,9 h,21.8 pg
same,MCHC,9 h,33.8%
same,MCV,9 h,64.4 fL
same,Mono,9 h,2.8%
same,Neu,9 h,21.2%
same,PT,9 h,13.3 s
same,Plat,9 h,118.2 x10_4/uL
same,RBC,9 h,603 x10_4/ul
same,Ret,9 h,8%
same,WBC,9 h,89.8 x10_2/uL
same,KIDNEY_L,9 h,1 g
same,KIDNEY_R,9 h,1 g
same,KIDNEY_TOTAL,9 h,1.9 g
same,LIVER,9 h,9 g
same,A/G,9 h,0.9
same,ALP,9 h,1520.8 IU/L
same,ALT,9 h,38.6 IU/L
same,AST,9 h,70.6 IU/L
same,BUN,9 h,9.8 mg/dL
same,CRE,9 h,0.2 mg/dL
same,Ca,9 h,11.3 mg/dL
same,Cl,9 h,105 meq/L
same,DBIL,9 h,0.02 mg/dL
same,GLC,9 h,194.6 mg/dL
same,IP,9 h,11.2 mg/dL
same,K,9 h,4 meq/L
same,LDH,9 h,55.8 IU/L
same,Na,9 h,142.8 meq/L
same,PL,9 h,150.2 mg/dL
same,RALB,9 h,2.6 g/dL
same,TBIL,9 h,0.04 mg/dL
same,TC,9 h,78.4 mg/dL
same,TG,9 h,67.2 mg/dL
same,TP,9 h,5.5 g/dL
same,gamma-GTP,9 h,1.4 IU/L
same,TERMINAL_BW,24 h,227.1 g
same,APTT,24 h,17.4 s
same,Bas,24 h,0%
same,Eos,24 h,1%
same,Fbg,24 h,271.6 mg/dL
same,Hb,24 h,13.4 g/dL
same,Ht,24 h,39.4%
same,Lym,24 h,77%
same,MCH,24 h,21.9 pg
same,MCHC,24 h,34.1%
same,MCV,24 h,64.2 fL
same,Mono,24 h,3.4%
same,Neu,24 h,17.8%
same,PT,24 h,13.3 s
same,Plat,24 h,123.4 x10_4/uL
same,RBC,24 h,615.2 x10_4/ul
same,Ret,24 h,7.5%
same,WBC,24 h,94.1 x10_2/uL
same,KIDNEY_L,24 h,1 g
same,KIDNEY_R,24 h,1 g
same,KIDNEY_TOTAL,24 h,2 g
same,LIVER,24 h,10.9 g
same,A/G,24 h,0.9
same,ALP,24 h,1673.6 IU/L
same,ALT,24 h,50.4 IU/L
same,AST,24 h,82.4 IU/L
same,BUN,24 h,15.6 mg/dL
same,CRE,24 h,0.2 mg/dL
same,Ca,24 h,11.4 mg/dL
same,Cl,24 h,105.4 meq/L
same,DBIL,24 h,0.022 mg/dL
same,GLC,24 h,192 mg/dL
same,IP,24 h,7.6 mg/dL
same,K,24 h,4.2 meq/L
same,LDH,24 h,69.4 IU/L
same,Na,24 h,142 meq/L
same,PL,24 h,138.4 mg/dL
same,RALB,24 h,2.6 g/dL
same,TBIL,24 h,0.028 mg/dL
same,TC,24 h,79.8 mg/dL
same,TG,24 h,119 mg/dL
same,TP,24 h,5.6 g/dL
same,gamma-GTP,24 h,1 IU/L
